From patent US20080057136A1, “Disinfecting Composition and Methods of Making and Using Same” (priority 2003, published 2008)
In brackets after ≈: the same amount, converted by molar mass. Like-named read-outs stand apart in the source and are kept apart here.

What was measured:
dermatophyte infections = dermatophyte infections in animals; cited from earlier work
Acute oral toxicity, rat = conditions: rat, in vivo, po
[1] = test system: Staphylococcus aureus (ATCC 25923); test: Time-Kill test (Example 9); type: cell-based; conditions: Study 509-101; at 30 seconds
Protocol: A panel of “challenge microorganisms,” including select bacteria, yeast, and fungi was used to assess the disinfecting properties of test compounds, e.g., AMC (DPT Laboratories). Specifically, the disinfectant property of test compounds were tested against Staphylococcus aureus (ATCC 25923); Staphylococcus epidermidis (ATCC 12228); Bacillus subtilis (ATCC 19659); Escherichia coli (ATCC 11229); and Pseudomonas aeruginosa (ATCC 15442) bacteria, as well as the yeast Candida albicans (ATCC 10231), and the fungus Trichophyton rubrum (ATCC 28188). The test procedure incorporated the recommendations described in the “Manual of Clinical Microbiology,” 5th ed., edited by A. B. Balows et al., ASM, Washington, as directed by the Federal Register, June 1994. […]
A single lot of test material was prepared at various concentrations, along with multiple compounds prepared in various concentrations and combinations. […] The plates were then incubated, and the average colony forming units (CFU) recovered per milliliter were determined for each contact time. […]
Bacteria and C. albicans from stock cultures were transferred into trypticase soya broth (TSB) and incubated for 18-24 hours at 37° C.±2° C. […] The microbe concentration was measured using a spectrophotometric technique well-known in the art. […]

T. rubrum ATCC 28188 [2] = test: NCCLS broth microdilution MIC and MFC (Example 11); type: cell-based, Trichophyton rubrum
Protocol: (§4) Strains of C. albicans (ATCC 10231) and T. rubrum (ATCC 28188) were tested in this study. Strains were removed from frozen stock and subcultured twice on blood agar to ensure that the strains had optimal growth and metabolic status before testing. Strains were tested by NCCLS broth microdilution (M27-A2, 2002) and challenged with AMC solution and its individual components […] ), and isopropanol. Amphotericin B, fluconazole, terbinafine, and Hibiclens were added as comparator compounds. […] Microtiter panels were created on the day of MIC testing. A 50 μl aliquot of RPMI 1640 was delivered to each well except those in column one of the microtiter panel. The working solution of AMC and each of its components, and comparative agents were delivered to the designated wells in column one; AMC, components, and comparators were serially diluted across the panel. A 50 μl aliquot of fungal suspension was then added to each well on the microtiter panel, using a new pipette tip for each aliquot. […] For amphotericin B, the endpoint was read as the complete inhibition of growth. […] MFCs were performed to determine the concentration at which ≧99% of the starting fungal inoculum was killed. […] After incubation, colony counts for each panel well plated were recorded. […] The endpoint for amphotericin B was read as complete inhibition of growth.

S. aureus ATCC 25923 = test: NCCLS broth microdilution MIC and MBC (Example 10); type: cell-based, Staphylococcus aureus
Protocol: (§5) Strains of E. coli (ATCC 11229), D. aeruginosa (ATCC 15442), S. aureus (ATCC 25923), S. epidermidis (ATCC 12228), S. pyogenes (ATCC 19615), C. albicans (ATCC 10231), and T. rubrum (ATCC 28188) were used as “challenge microorganisms” in this study. Strains were removed from frozen stock and subcultured twice on blood agar to ensure that the strains had optimal growth and metabolic status before testing.
(§6) Hibiclens (industry comparator) and ciprofloxacin were added to the bacterial panel. Amphotericin B, fluconazole, and Hibiclens were added as comparative agents in the fungal panels.
(§7) For testing purposes, AMC, AMC components, and Hibiclens were diluted to 50% of the working solution to cover the proposed AMC use dilution of 20%.
(§8) Microtiter panels were created on the day of MIC testing. A 50 μl aliquot of Mueller-Hinton broth (for bacterial strains) or RPMI 1640 (for fungal strains) was delivered to each well, except those in column one of the microtiter panel. The working solution of AMC and each of its components, and comparative agents were delivered to the designated wells in column one. AMC, components, and comparators were serially diluted across the panel. A 50 μl aliquot of bacterial or fungal suspension was then added to each well on the microtiter panel, using a new pipette tip for each aliquot. Panels were incubated at 35° C. for 16-20 h for the E. coli, P. aeruginosa, and S. aureus strains, 20-24 h for the S. pyogenes strain, and 48 h for the C. albicans strain.
(§9) The 10 μl samples were plated on to blood agar and incubated at 35° C. for 24 h (E. coli and P. aeruginosa) or 48 h (S. aureus, S. epidermidis, and S. pyogenes). After incubation, colony counts for each panel well plated were recorded.
(§10) The MIC % is expressed as g/100 ml or ml/100 ml. […] The MBC % is expressed as g/100 ml or ml/100 ml.

[3] = test system: Trichophyton rubrum (ATCC 28188); test: Time-Kill test (Example 9); type: cell-based; conditions: Table 25, first value column
Protocol: A panel of “challenge microorganisms,” including select bacteria, yeast, and fungi was used to assess the disinfecting properties of test compounds, e.g., AMC (DPT Laboratories). […] The procedure was based on the ASTM procedure entitled, “Standard Test Method for the Assessment of Microbial Activity of Test Materials Using Time-Kill Procedure.”
A single lot of test material was prepared at various concentrations, along with multiple compounds prepared in various concentrations and combinations. These test materials were tested in duplicate against various bacteria, yeast and fungi. To minimize potential buffer interference and to minimize reduction of antimicrobial activity, the volume of the inoculum added to the test material was maintained at, or below, 1% of the total volume of the test. Samples were removed at various contact times. Serial dilutions were performed, and duplicate aliquots were plated. The plates were then incubated, and the average colony forming units (CFU) recovered per milliliter were determined for each contact time. The contact times for the test compounds with S. aureus, E. coli, P. aeruginosa, and C. albicans were 30 sec, 1 min, and 5 min. The contact times for the test compounds with B. subtilis were 1 and 10 min, 1 h, 2 h, 3 h, and 24 h. The contact times for the test compounds with T. rubrum were 30 sec, 1 min and 10 min. The contact temperature was ambient room temperature (20-21° C.).
The fungus, T. rubrum, was inoculated onto Emmon's agar (EA) and incubated at 25-30° C. for 10-15 days. The mycelial mats from mature cultures were removed from the surface of at least 5 plates and macerated with sterile saline (SS) in a sterile glass tissue grinder. The suspension was filtered through sterile glass wool to remove the hyphae.
The density of the conidial suspension was determined by serially diluting the prepared culture in BPDW. Aliquots from selected dilutions were plated on duplicate EA plates. The plates were incubated for 3-5 days at 25-30° C. and then each plate was examined for enumeration.
The suspension was stored at 2-10° C. for 4 weeks before use. On the day of testing, the suspension was adjusted to yield approximately 5.0×10^8 CFU by dilution with BPDW.
Compliant with the ASTM procedure cited above, the challenge microorganism was added to the test material by dispensing 99 ml of the test material into two sterile flasks, each containing a stir bar. The reaction flasks were allowed to equilibrate to the test temperature for at least 10 minutes. The flasks were placed in water baths on stir plates and maintained at the test temperature with stirring. A 1 ml aliquot of the prepared inoculum of the challenge microorganism was added to each flask to begin the contact period. At each contact time, 1 ml aliquot samples were removed and added to tubes containing 9 ml PBDW+. Serial 10-fold dilutions of each sample were then prepared in PBDW dilution blanks. Duplicate aliquots from selected dilutions were plated using the appropriate agar.
Upon completion of all contact periods, all plates were inverted and incubated for the appropriate time and temperature as follows: bacteria and yeast were incubated over 2 nights at 37° C.±2° C., and the fungus was incubated for at least 5 nights at 25-30° C. Following incubation, all plates were removed, the colonies were counted and the CFU recovered per ml at each contact time were calculated.

[4] = test system: S. epidermidis ATCC 12228; test: NCCLS broth microdilution MIC and MBC (Example 10); type: cell-based, Staphylococcus epidermidis
Protocol: as §5, §6, §7, §8, §9, §10

T. rubrum ATCC 28188 [5] = test: NCCLS broth microdilution MIC and MFC (Example 10); type: cell-based, Trichophyton rubrum
Protocol: as §5
(§11) Amphotericin B, fluconazole, and Hibiclens were added as comparative agents in the fungal panels.
as §7
(§12) Microtiter panels were created on the day of MIC testing. A 50 μl aliquot of Mueller-Hinton broth (for bacterial strains) or RPMI 1640 (for fungal strains) was delivered to each well, except those in column one of the microtiter panel. The working solution of AMC and each of its components, and comparative agents were delivered to the designated wells in column one. AMC, components, and comparators were serially diluted across the panel. A 50 μl aliquot of bacterial or fungal suspension was then added to each well on the microtiter panel, using a new pipette tip for each aliquot. Panels were incubated at 35° C. for 16-20 h for the E. coli, P. aeruginosa, and S. aureus strains, 20-24 h for the S. pyogenes strain, and 48 h for the C. albicans strain. T. rubrum panels were incubated for 3 to 4 days before MICs were read. […] Fungal MICs (%) were read using an 80% reduction in the growth endpoint relative to the turbidity of the growth control for AMC, its components, and fluconazole. For amphotericin B, the endpoint was read as the complete inhibition of growth.
(§13) MFCs were determined in a similar manner.
(§14) The endpoint for amphotericin B was read as complete inhibition of growth. The MIC % is expressed as g/100 ml or ml/100 ml. […] The MFC % is expressed as g/100 ml or ml/100 ml.

P. aeruginosa ATCC 15442 = test: NCCLS broth microdilution MIC and MBC (Example 10); type: cell-based, Pseudomonas aeruginosa
Protocol: as §5, §6, §7, §8, §9, §10

S. pyogenes ATCC 19615 = test: NCCLS broth microdilution MIC and MBC (Example 10); type: cell-based, Streptococcus pyogenes
Protocol: as §5, §6, §7, §8, §9, §10

[6] = component at 100%; cited from earlier work
[7] = Acute dermal toxicity, rabbit; conditions: rabbit, in vivo, topical or ocular
[8] = Acute inhalation toxicity, rat; conditions: rat, in vivo, inhaled
[9] = component at 100%; cited from earlier work; remark: listed apart in the source
T. rubrum = test: MIC and MBC determination by doubling dilutions (Study 509-102); type: cell-based, Trichophyton rubrum; conditions: Trichophyton rubrum; Study 509-102; Inoculum Counts: 3.6 × 10^8
Description: (§1) Table 2 below indicates the stock dilutions for each test agent, and a breakdown of the resulting concentrations for each of the doubling dilutions performed is summarized in Table 3.
(§2) From the stock dilutions, an initial 1:10 dilution was made (representing tube 1), followed by doubling dilutions (tubes 2-12), as detailed in Table 3.

Staphylococcus aureus = test: as above; type: cell-based; conditions: Inoculum Counts: 7.5 × 10^6
Description: as §1, §2

Pseudomonas aeruginosa = test: as above; type: cell-based; conditions: Inoculum Counts: 8.8 × 10^5
Description: as §1, §2

S. pyogenes = test: as above; type: cell-based; conditions: Streptococcus pyogenes, Inoculum Counts: 9.8 × 10^5
Description: as §1, §2

S. epidermidis = test: as above; type: cell-based; conditions: Staphylococcus epidermidis, Inoculum Counts: 9.0 × 10^5
Description: as §1, §2

Escherichia coli = test: as above; type: cell-based; conditions: Inoculum Counts: 9.4 × 10^5
Description: as §1, §2

C. albicans = test: as above; type: cell-based; conditions: Candida albicans, Inoculum Counts: 6.6 × 10^5
Description: as §1, §2

E. coli ATCC 11229 = test: NCCLS broth microdilution MIC and MBC (Example 10); type: cell-based, Escherichia coli
Protocol: as §5, §6, §7, §8, §9, §10

S. aureus (strain 906) = test: Time-kill test, initial studies (death time); type: cell-based, Staphylococcus aureus
Description: (§3) Time-kill tests were used to measure the disinfecting property of test compounds, e.g., microbiocidal or sporicidal compositions, using select bacterial challenge microorganisms such as the vegetative forms of, e.g., E. coli (strain 1257) S. aureus (strain 906), and Bacillus cereus (strain 96).

C. albicans ATCC 10231 [10] = test: NCCLS broth microdilution MIC and MFC (Example 10); type: cell-based, Candida albicans
Protocol: as §5, §11, §7, §12, §13, §14

E. coli (strain 1257) = test: Time-kill test, initial studies (death time); type: cell-based, Escherichia coli
Description: as §3

C. albicans ATCC 10231 [11] = test: NCCLS broth microdilution MIC and MFC (Example 11); type: cell-based, Candida albicans
Protocol: as §4

[12] = Example 10, % as g/100 ml or ml/100 ml
[13] = Example 10, 99.9% inhibition of growth
[14] = Example 10, MBC within one doubling dilution of the MIC
[15] = 80% reduction in growth endpoint

SMILES: CC(C)N1CCN(c2ccc(N3CCN(c4ccc(OC[C@H]5OC[C@](Cn6cncn6)(c6ccc(F)cc6F)O5)cc4)CC3)cc2)C1=O [Azoline]
- activity relative to itraconazole (dermatophyte infections): 5 times

SMILES: CCCCCCCCCCCCCCCC[n+]1ccccc1 [CPC, Cetyl Pyridinium Chloride]
- LD50 (Acute oral toxicity, rat): 20000 mg/kg
- reduction of S. aureus count [1]: 2 log10
- MFC, % (T. rubrum ATCC 28188 [2]; Example 11): ≤ 0.0007%
- MFC (T. rubrum ATCC 28188 [2]; Trichophyton rubrum, ATCC28188): ≤ 7 µg/mL
- MBC, % (S. aureus ATCC 25923; [12]): <=0.0007%
- MBC (S. aureus ATCC 25923; Staphylococcus aureus, ATCC25923): ≤ 7 µg/mL
- 30-Second Log Reduction from Initial T. rubrum CFU Values [3]: 3.4 Logs
- MCB (μg/ml) [4]: (<=7) μg/ml
- MCB, % ([4]; % as g/100 ml or ml/100 ml): <=0.0007%
- MFC, % (T. rubrum ATCC 28188 [5]; [13]): ≤ 0.0007%
- MFC (T. rubrum ATCC 28188 [5]; Trichophyton rubrum, ATCC28188): ≤ 7 µg/mL
- MBC, % (P. aeruginosa ATCC 15442; [12]): 0.04%
- MBC (P. aeruginosa ATCC 15442; Pseudomonas aeruginosa, ATCC15442): 400 µg/mL
- MBC, % (S. pyogenes ATCC 19615; [12]): <=0.0007%
- MBC (S. pyogenes ATCC 19615; Streptococcus pyogenes, ATCC19615): ≤ 7 µg/mL
- Rat Inhalation LC50 [6]: 0.090 mg/L
- LD50 [7]: > 20000 mg/kg
- LC50 [8]: 9 µg/mL
- Rabbit Dermal LD50 [9]: >2,000 mg/Kg

SMILES: O=C(O)c1cn(C2CC2)c2cc(N3CCNCC3)c(F)cc2c1=O [Ciprofloxacin]
- MBC (T. rubrum): > 0.1 µg/mL
- MIC (T. rubrum): > 0.1 µg/mL
- MBC (Staphylococcus aureus): > 0.1 µg/mL
- MIC (Staphylococcus aureus): > 0.1 µg/mL
- MBC (Pseudomonas aeruginosa): > 0.1 µg/mL
- MIC (Pseudomonas aeruginosa): > 0.1 µg/mL
- MBC (S. pyogenes): > 0.1 µg/mL
- MIC (S. pyogenes): > 0.1 µg/mL
- MBC (S. epidermidis): > 0.1 µg/mL
- MIC (S. epidermidis): > 0.1 µg/mL
- MBC (Escherichia coli): > 0.1 µg/mL
- MIC (Escherichia coli): > 0.1 µg/mL
- MBC (C. albicans): > 0.1 µg/mL
- MIC (C. albicans): > 0.1 µg/mL
- bactericidal activity (S. aureus ATCC 25923; [14]): bactericidal activity
- MIC (S. aureus ATCC 25923; Staphylococcus aureus, ATCC25923, Example 10): 0.5 µg/mL (≈ 1.51 µM)
- MBC (S. aureus ATCC 25923; Staphylococcus aureus, ATCC25923, Example 10, read-out: MBC): 0.5 µg/mL (≈ 1.51 µM)
- MCB [4]: 0.25 µg/mL
- bactericidal activity ([4]; MBC within one doubling dilution of the MIC): bactericidal activity
- MIC ([4]; Staphylococcus epidermidis, ATCC12228): 0.25 µg/mL (≈ 0.754 µM)
- MIC (P. aeruginosa ATCC 15442; Pseudomonas aeruginosa, ATCC15442, Example 10): 0.12 µg/mL (≈ 0.362 µM)
- MBC (P. aeruginosa ATCC 15442; Pseudomonas aeruginosa, ATCC15442, Example 10, read-out: MBC): 0.5 µg/mL (≈ 1.51 µM)
- MIC (E. coli ATCC 11229; Escherichia coli, ATCC11229): ≤ 0.03 µg/mL
- MIC (S. pyogenes ATCC 19615; Streptococcus pyogenes, ATCC19615, Example 10): 0.5 µg/mL (≈ 1.51 µM)
- MBC (S. pyogenes ATCC 19615; Streptococcus pyogenes, ATCC19615, Example 10, read-out: MBC): 0.5 µg/mL (≈ 1.51 µM)

SMILES: O=C(O)CN(CCN(CC(=O)O)CC(=O)O)CC(=O)O.[Zn] [ZnEDTA, ethylenediaminotetraacetate zinc complex]
- reduction of S. aureus count [1]: ineffective
- MFC (T. rubrum ATCC 28188 [2]; Example 11): 6000 µg/mL
- MFC, % (T. rubrum ATCC 28188 [2]; Example 11): 0.6%
- MIC, % (T. rubrum ATCC 28188 [2]; Example 11, 80% reduction in growth endpoint): 0.04%
- MIC (T. rubrum ATCC 28188 [2]; Example 11, 80% reduction in growth, amphotericin B complete inhibition): 400 µg/mL
- fungicidal activity (T. rubrum ATCC 28188 [2]; Example 11, MFC within 1 doubling dilution of the MIC): did not demonstrate fungicidal activity
- Death time of test-microorganisms (min) S. aureus (S. aureus (strain 906); Conc. 0.1 %): >30 min
- Death time of test-microorganisms (min) S. aureus (S. aureus (strain 906); Conc. 5.0 %): >30 min
- MBC (μg/ml) (S. aureus ATCC 25923; Example 10): (>25000) μg/ml
- MBC, % (S. aureus ATCC 25923; [12]): >2.5%
- MIC, % (S. aureus ATCC 25923; [12]): 1.3%
- MCB (μg/ml) [4]: (>25000) μg/ml
- MCB, % ([4]; % as g/100 ml or ml/100 ml): >2.5%
- MIC, % ([4]; % as g/100 ml or ml/100 ml): 1.3%
- MIC, % (C. albicans ATCC 10231 [10]; [15]): 0.15%
- MIC (C. albicans ATCC 10231 [10]; 80% reduction in growth, amphotericin B complete inhibition): 1500 µg/mL
- MFC (C. albicans ATCC 10231 [10]; 99.9% inhibition of growth): 1500 µg/mL
- MFC, % (C. albicans ATCC 10231 [10]; 99.9% inhibition of growth): 0.15%
- fungicidal activity (C. albicans ATCC 10231 [10]; MFC within 1 doubling dilution of the MIC): Fungal activity
- MIC, % (T. rubrum ATCC 28188 [5]; Example 10, 80% reduction in growth endpoint): 0.08%
- MIC (T. rubrum ATCC 28188 [5]; Example 10, 80% reduction in growth, amphotericin B complete inhibition): 800 µg/mL
- MFC (T. rubrum ATCC 28188 [5]; [13]): 3000 µg/mL
- MFC, % (T. rubrum ATCC 28188 [5]; [13]): 0.3%
- fungicidal activity (T. rubrum ATCC 28188 [5]; Example 10, MFC within 1 doubling dilution of the MIC): did not demonstrate fungicidal activity
- Death time of test-microorganisms (min) E. coli (E. coli (strain 1257); Conc. 0.1 %): >30 min
- Death time of test-microorganisms (min) E. coli (E. coli (strain 1257); Conc. 5.0 %): >30 min
- MBC (P. aeruginosa ATCC 15442; Example 10): 80000 µg/mL
- MBC, % (P. aeruginosa ATCC 15442; [12]): 8%
- MIC, % (P. aeruginosa ATCC 15442; [12]): 2%
- bactericidal activity (P. aeruginosa ATCC 15442; [14]): did not meet the definition of bactericidal
- MIC, % (E. coli ATCC 11229; % as g/100 ml or ml/100 ml): 2%
- MBC (μg/ml) (S. pyogenes ATCC 19615; Example 10): (13000) μg/ml
- MBC, % (S. pyogenes ATCC 19615; [12]): 1.3%
- MIC, % (S. pyogenes ATCC 19615; [12]): 1.3%
- MFC (C. albicans ATCC 10231 [11]): 13 mg/mL
- MFC, % (C. albicans ATCC 10231 [11]): 1.3%
- MIC, % (C. albicans ATCC 10231 [11]; [15]): 0.08%
- MIC (C. albicans ATCC 10231 [11]; 80% reduction in growth, amphotericin B complete inhibition, terbinafine 50%/90%): 800 µg/mL
